Measured values taken from BindingDB's records for patent US20250115607 (Hoffmann-La Roche, 2025).

Columns and labels:
Assay in all cases: Phosphorylation Assay SIK1-3
[1] = target: Serine/threonine-protein kinase SIK1 (Homo sapiens, UniProt P57059)
Procedure: (§1) In the presence of SIK2 (resp. SIK1 or SIK3) and ATP the CHK-peptide ([…] with C-terminal arginine amide modification) were phosphorylated at one of the four feasible serine's. Only one phosphorylation is observed under the assay conditions. 60 nl of each compound dilution series (12 point; dilution factor 3, generally 30 μM to 170 pM) in DMSO were transferred by acoustic dispensing to the assay plate and 30 minutes pre-incubated (ambient temperature) after the addition of 5 μl SIK1 (5 nM) resp. 5 μl SIK2 (0.5 nM) or 7 μl SIK3 (1.5 nM) in assay-buffer (12.5 mM HEPES (pH 7.0), 10 mM magnesium acetate, 0.005% BSA). 10 μM CHK-peptide solution and 5 μl of 100 μM ATP for SIK1 & SIK2 resp. 3 μl for SIK3 in assay-buffer were added and incubated ambient for 45 minutes. 40 μl of 0.125% formic acid in water were added to quench the reaction. RapidFire (RF) Mass Spectrometry was utilized for data generation as described below. The multiple charged species (3-5 charges) for the phosphorylated and non-phosphorylated form measured by MRM (Multiple Reaction Monitoring; API5000 or 6500+) or EIC (Extracted Ion Current; QToF) were summed up and the ratio calculated (sum phosphorylated species/sum all species) for data evaluation. Normalization was performed by Genedata software based on the non-inhibition control DMSO and the commercially available STK inhibitor @1 μM YKL-05-099 (CAS number 1936529-65-5).

[2] = target: Serine/threonine-protein kinase SIK2 (Homo sapiens, UniProt Q9H0K1)
Procedure: as §1

[3] = target: Serine/threonine-protein kinase SIK3 (Homo sapiens, UniProt Q9Y2K2)
Procedure: as §1

Sequence of Serine/threonine-protein kinase SIK3 (Q9Y2K2 whole entry): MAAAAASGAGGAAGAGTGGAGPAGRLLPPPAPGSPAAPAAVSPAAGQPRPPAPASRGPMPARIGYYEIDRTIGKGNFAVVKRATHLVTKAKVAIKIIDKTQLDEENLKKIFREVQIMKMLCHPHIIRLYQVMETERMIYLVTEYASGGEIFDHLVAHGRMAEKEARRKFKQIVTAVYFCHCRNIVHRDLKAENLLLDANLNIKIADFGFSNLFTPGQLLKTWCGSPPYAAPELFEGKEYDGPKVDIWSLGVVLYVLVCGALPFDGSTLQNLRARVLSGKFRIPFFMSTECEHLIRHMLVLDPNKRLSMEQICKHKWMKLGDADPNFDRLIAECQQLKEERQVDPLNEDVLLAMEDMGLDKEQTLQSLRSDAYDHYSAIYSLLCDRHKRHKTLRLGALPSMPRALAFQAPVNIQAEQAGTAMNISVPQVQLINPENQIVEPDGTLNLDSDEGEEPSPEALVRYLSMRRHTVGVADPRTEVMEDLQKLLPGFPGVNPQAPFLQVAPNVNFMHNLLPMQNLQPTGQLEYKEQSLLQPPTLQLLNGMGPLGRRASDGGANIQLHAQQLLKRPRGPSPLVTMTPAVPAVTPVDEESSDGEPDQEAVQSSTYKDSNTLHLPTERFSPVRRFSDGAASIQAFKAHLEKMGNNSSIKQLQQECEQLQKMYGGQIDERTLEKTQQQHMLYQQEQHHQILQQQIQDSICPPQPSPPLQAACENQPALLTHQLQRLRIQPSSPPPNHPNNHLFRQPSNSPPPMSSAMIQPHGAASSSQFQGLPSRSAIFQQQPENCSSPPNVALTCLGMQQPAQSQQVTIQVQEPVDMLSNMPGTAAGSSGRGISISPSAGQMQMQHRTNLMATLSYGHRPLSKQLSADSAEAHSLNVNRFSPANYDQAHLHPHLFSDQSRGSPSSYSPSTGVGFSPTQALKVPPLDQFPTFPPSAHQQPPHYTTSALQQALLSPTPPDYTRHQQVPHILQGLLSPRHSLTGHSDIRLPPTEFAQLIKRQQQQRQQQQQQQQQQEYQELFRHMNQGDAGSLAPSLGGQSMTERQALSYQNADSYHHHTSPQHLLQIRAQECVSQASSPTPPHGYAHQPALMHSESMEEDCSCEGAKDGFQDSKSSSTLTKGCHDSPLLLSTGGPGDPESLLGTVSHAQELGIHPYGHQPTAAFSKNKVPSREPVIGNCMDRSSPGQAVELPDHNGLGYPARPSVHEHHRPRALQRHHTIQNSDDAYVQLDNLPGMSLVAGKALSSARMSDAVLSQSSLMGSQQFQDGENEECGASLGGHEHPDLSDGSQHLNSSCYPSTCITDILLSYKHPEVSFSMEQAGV
Sequence of Serine/threonine-protein kinase SIK1 (P57059 whole entry): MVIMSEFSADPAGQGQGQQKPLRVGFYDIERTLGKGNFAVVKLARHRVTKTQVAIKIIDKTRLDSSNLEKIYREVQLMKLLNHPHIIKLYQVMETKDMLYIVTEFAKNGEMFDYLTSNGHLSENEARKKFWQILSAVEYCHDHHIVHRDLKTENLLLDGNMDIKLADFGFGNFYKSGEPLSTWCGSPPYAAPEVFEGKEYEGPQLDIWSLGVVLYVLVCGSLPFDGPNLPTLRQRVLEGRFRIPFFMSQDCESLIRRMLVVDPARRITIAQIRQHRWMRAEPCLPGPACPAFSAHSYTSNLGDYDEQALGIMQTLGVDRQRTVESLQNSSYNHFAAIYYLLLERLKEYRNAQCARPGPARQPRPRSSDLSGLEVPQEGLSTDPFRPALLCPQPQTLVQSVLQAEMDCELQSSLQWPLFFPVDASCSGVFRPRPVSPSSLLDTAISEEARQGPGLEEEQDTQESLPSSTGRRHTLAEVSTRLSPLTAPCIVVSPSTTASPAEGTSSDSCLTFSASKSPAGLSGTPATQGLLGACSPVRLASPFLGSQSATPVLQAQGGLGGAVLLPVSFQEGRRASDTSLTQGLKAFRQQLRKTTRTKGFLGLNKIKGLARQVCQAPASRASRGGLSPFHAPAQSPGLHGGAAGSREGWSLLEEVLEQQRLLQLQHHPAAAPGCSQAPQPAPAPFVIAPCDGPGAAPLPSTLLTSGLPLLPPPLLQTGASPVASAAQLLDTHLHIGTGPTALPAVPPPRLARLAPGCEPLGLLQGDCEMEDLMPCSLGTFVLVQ
Sequence of Serine/threonine-protein kinase SIK2 (Q9H0K1 whole entry): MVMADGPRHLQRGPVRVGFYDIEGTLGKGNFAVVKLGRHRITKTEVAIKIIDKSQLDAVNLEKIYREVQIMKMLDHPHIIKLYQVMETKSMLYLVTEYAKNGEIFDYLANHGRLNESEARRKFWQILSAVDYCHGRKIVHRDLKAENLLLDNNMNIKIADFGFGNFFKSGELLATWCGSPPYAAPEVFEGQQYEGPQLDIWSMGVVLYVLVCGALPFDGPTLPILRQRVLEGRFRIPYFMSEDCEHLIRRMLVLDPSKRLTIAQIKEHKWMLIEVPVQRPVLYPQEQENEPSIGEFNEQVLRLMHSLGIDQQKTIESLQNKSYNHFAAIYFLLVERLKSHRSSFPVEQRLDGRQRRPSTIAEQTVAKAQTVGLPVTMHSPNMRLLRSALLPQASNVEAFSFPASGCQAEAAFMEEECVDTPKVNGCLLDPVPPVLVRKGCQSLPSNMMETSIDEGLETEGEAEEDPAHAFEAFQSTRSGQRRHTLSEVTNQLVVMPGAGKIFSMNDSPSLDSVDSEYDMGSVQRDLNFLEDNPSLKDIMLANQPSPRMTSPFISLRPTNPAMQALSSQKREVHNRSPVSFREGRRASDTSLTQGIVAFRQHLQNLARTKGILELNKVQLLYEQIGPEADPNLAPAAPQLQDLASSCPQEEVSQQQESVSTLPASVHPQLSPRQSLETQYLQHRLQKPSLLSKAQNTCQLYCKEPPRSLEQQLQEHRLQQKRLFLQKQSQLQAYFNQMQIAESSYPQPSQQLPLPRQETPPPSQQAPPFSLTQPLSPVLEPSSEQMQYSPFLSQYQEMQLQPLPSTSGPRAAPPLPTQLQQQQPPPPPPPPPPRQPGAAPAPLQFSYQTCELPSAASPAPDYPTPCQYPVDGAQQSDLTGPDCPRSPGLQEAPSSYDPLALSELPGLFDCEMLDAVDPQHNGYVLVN

IC50 [1]: 19000 nM | IC50 [2]: 687 nM | IC50 [3]: 2060 nM
SMILES: CC(=O)c1ccc(-n2cnc3cc(N(C)c4ccc(C)nn4)ncc32)nc1-n1nc(C#N)cc1C [US20250115607, Example 5]
